Test results reported in PMC9513234, “Synthesis and Biological Evaluation of Termini-Modified and Cyclic Variants of the Connexin43 Inhibitor Peptide5” (Frontiers in Chemistry, 2022).
“Also recorded” adds a separate entry of the source. Where a SMILES comes first, the peptide text is derived from it. Bridges are numbered along the chain shown (N, C = ends). [ ]: non-standard residue; d: D form. The star is where a group is joined. AllylGly = C=CC[C@H](N)C(=O)O; Ethoxycarbonyl = CCOC(=O)*; Butyryl = CCCC(=O)*; Bz = O=C(c1ccccc1)*; N3 = azide

Experiments:
[1] = system: gap junctions in hCMVEC cells; settings: 100 µM; for LY dye spread (number of LY-positive cells) as percentage of untreated control: mean ± SEM
Description: We next investigated the ability of peptide5 variants to inhibit gap junctional communication using a scrape loading assay. In this assay, the cells in culture are loaded with a dye (Lucifer Yellow dilithium salt (LY), M.W. 457.25 Da) of molecular size (<1 kDa) that is able to transit through the gap junctions and the degree of dye spread is then measured by counting the number of cells that contain LY (Supplementary Material, Method 4) ^1. Consistent with our previous study, peptide5 (1) and Cbx reduced the degree of dye spread following incubation with LY (56.16 ± 2.1%; p < 0.0001 and 16.2 ± 1.1%; p < 0.0001, respectively) compared to the untreated controls (Figure 12).
(§1) Human cerebral microvascular endothelial cells (hCMVEC) were purchased from Applied Biological Materials (ABM) Inc, Canada (cat # T0259) (O'Carroll et al., 2015). Cells were cultured in 1 μg/cm^2 collagen I (Gibco) coated T75 flasks from Corning (NY, USA). The growth media was M199 media (Gibco), supplemented with 10% FBS, 1 μg/mL hydrocortisone (Sigma), 3 μg/mL human FGF (Peprotech), 10 μg/mL human EGF (Peprotech), 10 μg/mL heparin (Sigma), 2 mM Glutamax (Gibco), and 80 μM butyryl cAMP (Sigma).
For experiments hCMVECs cells were plated M199 media at a density of 4 x 10^5 cells per well in a collagen coated (1 µg/cm^2) 12-well plate the day prior to the experiment to ensure a confluent monolayer of hCMVECs. On the day of the experiment cells were pre-incubated in carbenoxolone, (100 µM) Peptide5 (5–100 µM) or modified analogues (100 µM) or M199 as a negative control. Cells were washed three times with phosphate buffered saline (PBS) without Ca^2+ or Mg^2+ and incubated in 0.05% Lucifer Yellow (LY) (Sigma), a fluorescent dye that is transferred through coupled gap junction channels (el-Fouly, Trosko, & Chang, 1987), and scrape-wounded with a size 10 carbon steel surgical blade (Swann-Morton, England). Following a 5 minute incubation at 37 °C in 95% O2 and 5% CO2 without light, the 0.05% LY solution was removed. Cells were rinsed four times with HBSS containing Ca^2+ ^+, and then fixed in 4% paraformaldehyde (PFA) in PBS at pH 7.4 for 10 minutes at room temperature. Cells were then washed 3 times in PBS to remove PFA before fluorescent imaging. Fluorescent images were visualized using a Nikon TE2000E inverted fluorescent microscope (10x magnification, 0.3 numerical aperture), and captured using a Digital Sight CCD camera and Eclipse Net software (Nikon). Three images within each well from three independent experiments were taken for analysis, and the total number of cells showing dye uptake from those that had been loaded were counted manually by masked observers. Each peptide was tested in at least an n of 2 separate experiments.

Cx43 hemichannel = biological target: T1, Cx43 hemichannel (Homo sapiens, UniProt P17302); test: HAIR ischemic injury-induced ATP release (hemichannel) assay, bioluminescence; format: cell-based; settings: hCMVEC cells, 2 h in HAIR solution, 100 µM; for ATP release compared to HAIR control (result in words) / ATP release compared to peptide5 (result in words): one-way ANOVA, Dunnett; for ATP release over untreated HAIR controls: mean ± SEM
T1 construct: ischemic injury–induced ATP release from hCMVEC cells in vitro; host or cells: hCMVEC (human cerebral microvascular endothelial cells)
Description: To test the effect of the peptide modifications on peptide5 (1) activity against hemichannels, a model of ischemic insult on a cell culture model of the brain microvasculature was used to induce Cx43 hemichannel opening and ATP release (Supplementary Material, Method 4). The cells were incubated in hypoxic-acidic ion-shifted ringers (HAIR) solution to generate disrupted pH and ion balance leading to ATP leak from the cells, which can be sampled and quantified luminometrically using a commercially available firefly luciferase assay (Molecular Probes).
as §1
For experiments hCMVECs were plated in M199 media at a density of 2.5 x 10^4 cells per well in a collagen-coated (1 µg/cm^2) 12-well plate the day prior to the experiment. Hypoxic, acidic, ion-shifted Ringer (HAIR) injury solution that mimics ionic concentrations and acid-base shifts of the interstitial space in hypoxic-ischemic brains (Bondarenko & Chesler, 2001) was used to trigger hemichannel opening as described previously (Kim et al., 2017). HAIR solution (38 mM NaCl, 13 mM NaHCO3, 3 mM Na-gluconate, 65 mM K-gluconate, 38 mM NMDG-Cl, 1 mM NaH2PO4, and 1.5 mM MgCl2) was bubbled in 95% N2, 5% CO2 gas (20 L/min) for 5 minutes and pH adjusted to 6.6 before use. To induce ischemic, cells were incubated for 2 hours in 500 µL HAIR solution +/- carbenoxolone (100 µM), Peptide5 or modified analogues (100 µM). For the negative control, hCMVEC cells were incubated for 2 hours in 500 µL standard Ringer solution 124 mM NaCl, 3 mM KCl, 26 mM NaHCO3, […], 1 mM NaH2PO4, 1.3 mM CaCl2, 1.5 MgCl2, and 10 mM glucose) adjusted to pH 7.4 before use. All incubations were carried out at 37 °C in 95% O2 and 5% CO2. At the end of each experiment, samples were removed and immediately placed on ice. The concentration of ATP in the samples was determined using a luciferin/luciferase bioluminescence reaction (ATP Determination Kit, Molecular Probes) and detected using a luminescence plate reader (FLUOStar OPTIMA FL, BMG Labtech). Standard curves were generated for each experiment from an ATP standard (0 to 500 nM) and used to convert bioluminescence units to ATP concentration. […] Only readings in the plateau phase of the reaction were included in averaging for the well value. Each peptide was tested in at least an n of 2 separate experiments.

[2] = Human serum stability assay (RP-HPLC); settings: for stability in human serum (result in words): 25% aq. human serum, 37°C, 48 h
Description: We then evaluated the N-methylated variants 7 and 8, D amino acid variants 9 and 10, and the two carbo cyclic peptides 39 and 42. Each peptide was incubated with 25% aq. human serum at 37°C, and 6 aliquots were extracted within 48 h. The stability of each peptide upon exposure to human serum was then analyzed via analytical RP HPLC, and the amount of peptide still present at each time point was recorded relative to t = 0 h.
Whole blood was collected from a healthy volunteer and stored in a covered test tube and was allowed to clot by leaving it undisturbed at r.t. for ca. 1 h. The clot was removed by centrifugation at 1,000-2,000 x g for 10 min and the resulting supernatant was designated as the serum. The serum was collected and stored in 0.5 mL aliquots, whereby the samples were stored at - 20 °C.
200 µM concentration of peptide was incubated in 25% aq. human serum (1.7 mL) and left to shake at 37 °C. Aliquots of human serum-peptide mixture (270 µL) were taken at given times (0 h, 1 h, 4 h, 8 h, 24 h, and 48 h) and threefold excess of acetonitrile (810 µL) was added to the aliquot and left for 1 h at 0 °C. The samples underwent centrifugation (14,500 rpm) for 30 min at r.t. and the supernatant was subsequently collected. Upon evaporation of the solvents, the resulting dry, pale-yellow residue was dissolved in water containing 0.1 % TFA.
The dissolved solution was analysed via analytical RP HPLC and the quantity of the peptide was expressed as a percentage relative to the peptide peak area obtained at time zero (i.e. 100% peptide amount at t = 0 h). A scatterplot graph representing percentage of peptide versus time was generated.

gap junctions = settings: ref Kim et al., 2017b; cited from earlier work

T1 sequence (P17302 whole entry): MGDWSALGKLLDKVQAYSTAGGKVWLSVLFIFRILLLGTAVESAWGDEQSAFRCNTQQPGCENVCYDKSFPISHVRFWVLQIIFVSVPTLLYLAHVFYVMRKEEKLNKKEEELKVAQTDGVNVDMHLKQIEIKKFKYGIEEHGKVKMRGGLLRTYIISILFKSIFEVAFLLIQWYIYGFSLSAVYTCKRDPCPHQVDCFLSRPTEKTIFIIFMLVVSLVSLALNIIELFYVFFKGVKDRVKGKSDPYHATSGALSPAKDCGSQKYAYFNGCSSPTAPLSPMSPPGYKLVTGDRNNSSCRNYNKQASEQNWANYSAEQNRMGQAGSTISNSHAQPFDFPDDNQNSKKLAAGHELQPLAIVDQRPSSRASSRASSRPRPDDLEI

CC1(C)[C@@H](OC(=O)CCC(=O)O)CC[C@]2(C)[C@H]3C(=O)C=C4[C@@H]5C[C@@](C)(C(=O)O)CC[C@]5(C)CC[C@@]4(C)[C@]3(C)CC[C@@H]12 [Cbx, carbenoxolone, reference compound]
LY dye spread (number of LY-positive cells) as percentage of untreated control [1]: 16.2 ± 1.1%

CC(C)C[C@H](NC(=O)[C@H](Cc1ccccc1)NC(=O)[C@H](CS)NC(=O)[C@H](CC(=O)O)NC(=O)[C@@H](N)C(C)C)C(=O)N[C@@H](CO)C(=O)N[C@@H](CCCNC(=N)N)C(=O)N1CCC[C@H]1C(=O)N[C@H](C(=O)N[C@@H](CCC(=O)O)C(=O)N[C@H](CCCCN)C(=O)N[C@H](C(=O)O)[C@@H](C)O)[C@@H](C)O [Peptide 9, H2N-VDCFLSRPTEkT-CO2H] (H-VDCFLSRPTE[dK]T-OH)
LY dye spread compared to peptide5 (result in words) [1]: not statistically different from peptide5 | LY dye spread (number of LY-positive cells) as percentage of untreated control [1]: 74.7 ± 10.4%

CC(C)C[C@H](NC(=O)[C@H](Cc1ccccc1)NC(=O)[C@H](CS)NC(=O)[C@H](CC(=O)O)NC(=O)[C@@H](N)C(C)C)C(=O)N[C@@H](CO)C(=O)N[C@H](CCCNC(=N)N)C(=O)N1CCC[C@H]1C(=O)N[C@H](C(=O)N[C@@H](CCC(=O)O)C(=O)N[C@@H](CCCCN)C(=O)N[C@H](C(=O)O)[C@@H](C)O)[C@@H](C)O [Peptide 10, H2N-VDCFLSrPTEKT-CO2H] (H-VDCFLS[dR]PTEKT-OH)
LY dye spread / gap junction inhibition compared to control (result in words) [1]: did not reduce the degree of dye spread compared to control | LY dye spread compared to peptide5 (result in words) [1]: significantly increased compared to peptide5 (1) | ATP release compared to HAIR control (result in words) (Cx43 hemichannel): complete lack of activity | ATP release compared to peptide5 (result in words) (Cx43 hemichannel): significantly increased compared to peptide5 (1)

CC(C)C[C@@H]1NC(=O)[C@H](Cc2ccccc2)NC(=O)[C@H](CS)NC(=O)[C@H](CC(=O)O)NC(=O)[C@H](C(C)C)NC(=O)[C@@H](N)CC=CC[C@@H](C(=O)O)NC(=O)[C@H]([C@@H](C)O)NC(=O)[C@H](CCCCN)NC(=O)[C@H](CCC(=O)O)NC(=O)[C@H]([C@@H](C)O)NC(=O)[C@@H]2CCCN2C(=O)[C@H](CCCNC(=N)N)NC(=O)[C@H](CO)NC1=O [Peptide 39] (H-[AllylGly]VDCFLSRPTEKT[AllylGly]-OH; staple 1-14)
stability in human serum (result in words) [2]: good stability over 48 h; also recorded: the most stable in human serum

CC(C)C[C@@H]1NC(=O)[C@H](Cc2ccccc2)NC(=O)[C@H](CS)NC(=O)[C@H](CC(=O)O)NC(=O)[C@H](C(C)C)NC(=O)[C@@H](N)CC=CC[C@@H](C(=O)N[C@H](C(=O)O)[C@@H](C)O)NC(=O)[C@H](CCC(=O)O)NC(=O)[C@H]([C@@H](C)O)NC(=O)[C@@H]2CCCN2C(=O)[C@H](CCCNC(=N)N)NC(=O)[C@H](CO)NC1=O [Peptide 42] (H-[AllylGly]VDCFLSRPTE[AllylGly]T-OH; staple 1-12)
stability in human serum (result in words) [2]: extremely resistant to enzymatic degradation; also recorded: the most stable in human serum | remaining at 48 h, 200 µM ([2]; human, serum): ~90%

(CH 3 ) 2 CH 2 CH 2 OCO-NH-VDCFLSRPTEKT-CO2H (isopentyloxycarbonyl-VDCFLSRPTEKT-OH) [Peptide 3]
ATP release over untreated HAIR controls (Cx43 hemichannel): 52.6 ± 1.3% | ATP release compared to peptide5 (result in words) (Cx43 hemichannel): equaling the efficacy of peptide5 (1)

CH 3 CH 2 CH 2 CO-NH-VDCFLSRPTEKT-CO2H (Butyryl-VDCFLSRPTEKT-OH) [Peptide 5]
ATP release over untreated HAIR controls (Cx43 hemichannel): 57.3 ± 12.4% | ATP release compared to peptide5 (result in words) (Cx43 hemichannel): equaling the efficacy of peptide5 (1)

CH 3 CH 2 CH 2 CO-NH-VDCFLSRPTEKT-CONH 2 (Butyryl-VDCFLSRPTEKT-NH2) [Peptide 14]
LY dye spread compared to peptide5 (result in words) [1]: significantly increased dye spread relative to peptide5 (1)

CH 3 CH 2 OCO-NH-VDCFLSRPTEKT-CO2H (Ethoxycarbonyl-VDCFLSRPTEKT-OH) [Peptide 2]
LY dye spread compared to peptide5 (result in words) [1]: significantly increased dye spread relative to peptide5 (1) | ATP release compared to HAIR control (result in words) (Cx43 hemichannel): did not reduce ATP release compared to HAIR control

CH 3 CH 2 OCO-NH-VDCFLSRPTEKT-CONH 2 (Ethoxycarbonyl-VDCFLSRPTEKT-NH2) [Peptide 11]
LY dye spread compared to peptide5 (result in words) [1]: significantly increased dye spread relative to peptide5 (1)

H2N-VDCFLSRPTEKT-CH 2 OH (H-VDCFLSRPTEKT-CH2OH) [Peptide 15]
LY dye spread compared to peptide5 (result in words) [1]: significantly increased dye spread relative to peptide5 (1)

N 3 -VDCFLSRPTEKT-CO2H (N3-VDCFLSRPTEKT-OH) [Peptide 6]
LY dye spread compared to peptide5 (result in words) [1]: significantly increased dye spread relative to peptide5 (1) | ATP release compared to HAIR control (result in words) (Cx43 hemichannel): complete lack of activity; also recorded: did not reduce ATP release compared to HAIR control | ATP release compared to peptide5 (result in words) (Cx43 hemichannel): significantly increased compared to peptide5 (1)

PhCO-NH-VDCFLSRPTEKT-CO2H (Bz-VDCFLSRPTEKT-OH) [Peptide 4]
LY dye spread compared to peptide5 (result in words) [1]: significantly increased dye spread relative to peptide5 (1) | ATP release compared to HAIR control (result in words) (Cx43 hemichannel): did not reduce ATP release compared to HAIR control

SRPTEKT [a truncated peptide5]
gap junction inhibition compared with peptide5 (result in words) (gap junctions): equally effective as a gap junction inhibitor
